# Results published in PubChem BioAssay (NCI).
#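 1) Cells in 96-well plates. 2) Compound, 48 h, 5 concentrations. 3) Linear interpolation between surrounding doses. 4) Unreached endpoint = highest concentration. At the GI50, growth is halved. TGI: concentration producing complete growth inhibition.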
# Legend:
# Test in all cases: inhibition of tumour cell growth, NCI panel, 48 h
# UACC-62 melanoma = system: UACC-62 melanoma
# NCI-H226 lung = system: NCI-H226 lung
# HOP-62 NSCLC = system: HOP-62 NSCLC
# HOP-92 NSCLC = system: HOP-92 NSCLC
# SK-MEL-28 melanoma = system: SK-MEL-28 melanoma
# RXF 393 renal = system: RXF 393 renal
# SK-OV-3 ovarian = system: SK-OV-3 ovarian
# OVCAR-8 ovarian = system: OVCAR-8 ovarian
# SN12C renal = system: SN12C renal
# NCI-H522 lung = system: NCI-H522 lung
SMILES,TGI (UACC-62 melanoma),TGI (NCI-H226 lung),TGI (HOP-62 NSCLC),TGI (HOP-92 NSCLC),TGI (SK-MEL-28 melanoma),TGI (RXF 393 renal),TGI (SK-OV-3 ovarian),TGI (OVCAR-8 ovarian),TGI (SN12C renal),TGI (NCI-H522 lung),GI50 (UACC-62 melanoma),GI50 (NCI-H226 lung),GI50 (HOP-92 NSCLC),GI50 (SK-MEL-28 melanoma),GI50 (RXF 393 renal),GI50 (SK-OV-3 ovarian),GI50 (OVCAR-8 ovarian),GI50 (SN12C renal),GI50 (NCI-H522 lung)
O=C(O)/C=C/c1cnc[nH]1,> 500 µM,> 500 µM,> 500 µM,> 500 µM,> 500 µM,> 500 µM,> 500 µM,> 500 µM,> 500 µM,> 500 µM,–,–,–,–,–,–,–,–,–
O=C(O)c1cncc(C(=O)O)c1,> 100 µM,> 100 µM,> 100 µM,–,> 100 µM,> 100 µM,> 100 µM,> 100 µM,> 100 µM,> 100 µM,–,–,–,–,–,–,–,–,–
CC(=O)[O-].[Ni].c1ccc(/C(=N\Nc2ccccn2)c2ccccn2)cc1,18.8 µM,47.6 µM,30.1 µM,22.3 µM,18.8 µM,30 µM,43.2 µM,31.6 µM,29.3 µM,20.9 µM,–,–,–,–,–,–,–,–,–
COc1ccc2c[n+](C)c3c4cc(OC)c(OC)cc4ccc3c2c1,41.3 µM,35.1 µM,27.7 µM,35.3 µM,40.1 µM,35.2 µM,14.7 µM,13.8 µM,12.6 µM,7.5 µM,–,–,–,–,–,–,–,–,–
NC(CCCNc1cccc(O)c1)C(=O)O (stereo not drawn),> 100 µM,> 100 µM,> 100 µM,> 100 µM,> 100 µM,> 100 µM,> 100 µM,> 100 µM,> 100 µM,> 100 µM,–,–,–,–,–,–,–,–,–
CCSc1nc(N2CCCCC2)c2cn[nH]c2n1,47.1 µM,51.3 µM,–,> 100 µM,> 100 µM,92.4 µM,> 100 µM,> 100 µM,> 100 µM,> 100 µM,18.8 µM,15.3 µM,18.1 µM,57.6 µM,24.5 µM,> 100 µM,43.6 µM,25.7 µM,30.7 µM
Cn1c(=O)c2c(ncn2CCSS(=O)(=O)O)n(C)c1=O,> 100 µM,> 100 µM,> 100 µM,> 100 µM,> 100 µM,> 100 µM,> 100 µM,> 100 µM,> 100 µM,> 100 µM,–,–,–,–,–,–,–,–,–
COc1cccc(C2C(C(=O)O)=C(CO)Oc3cc4c(cc32)OCO4)c1 (stereo not drawn),> 100 µM,> 100 µM,–,> 100 µM,> 100 µM,–,> 100 µM,> 100 µM,> 100 µM,> 100 µM,–,–,–,–,–,–,–,–,–
CC(=O)[O-].CC(=O)[O-].O=C(N/N=C/c1cc(Cl)cc(Cl)c1[OH2+])c1ccncc1.[Zn+2],> 100 µM,> 100 µM,> 100 µM,–,> 100 µM,> 100 µM,> 100 µM,> 100 µM,> 100 µM,> 100 µM,–,–,–,–,–,–,–,–,–
COc1ccc2c(c1)O[C@H]1c3ccc(O)cc3OC[C@@H]21,29.3 µM,59.3 µM,> 100 µM,–,–,54.9 µM,98.9 µM,> 100 µM,> 100 µM,79.4 µM,–,–,–,–,–,–,–,–,–
CC(=O)NC(CCCCNC(=O)OC(C)(C)C)C(=O)O (stereo not drawn),> 100 µM,–,> 100 µM,–,> 100 µM,–,–,> 100 µM,–,> 100 µM,–,–,–,–,–,–,–,–,–
C=C(CN(C)C)C(=O)c1cc(C)ccc1C,29.7 µM,27.8 µM,33.8 µM,8.2 µM,42.5 µM,9.52 µM,33 µM,66.5 µM,42.6 µM,1.52 µM,–,–,–,–,–,–,–,–,–
O=C(N1CCC(CN=c2cc3n(-c4ccc(Cl)cc4)c4ccccc4nc-3cc2Nc2ccc(Cl)cc2)CC1)N1CC1,3.47 µM,74.2 µM,–,37 µM,0.981 µM,1.29 µM,4.64 µM,–,–,2.73 µM,1.92 µM,23.6 µM,13.5 µM,0.519 µM,0.369 µM,2.25 µM,–,–,1.32 µM
O=c1[nH]cc(N(CCCl)CCCl)c(=O)[nH]1,60.6 µM,179 µM,81.7 µM,123 µM,204 µM,81.1 µM,183 µM,201 µM,162 µM,60.9 µM,–,–,–,–,–,–,–,–,–
O=NNc1cnccn1,> 1220 µM,> 1250 µM,265 µM,> 1250 µM,> 1250 µM,> 1250 µM,> 330 µM,> 1250 µM,> 1250 µM,> 1250 µM,–,–,–,–,–,–,–,–,–
c1ccc(SC(Sc2ccccc2)c2ccc3c(c2)OCO3)cc1,> 100 µM,> 100 µM,> 100 µM,> 100 µM,> 100 µM,> 100 µM,–,> 100 µM,> 100 µM,> 100 µM,–,–,–,–,–,–,–,–,–
CCOC(=O)C1(C(=O)OCC)CSC1,–,> 100 µM,–,> 100 µM,> 100 µM,> 100 µM,> 100 µM,> 100 µM,> 100 µM,> 100 µM,–,–,–,–,–,–,–,–,–
